From patent publication US6656911B2, “Serine protease inhibitors” (Cortech, Inc., priority 1994, dated 2003)

Columns and labels:
[1] = target: T1, human neutrophil elastase (HNE) (Homo sapiens, UniProt P08246); assay: HNE Ki of CE compounds, tested as described in WO 96/16080; assay type: biochemical; settings: read-out: HNE Ki
T1 sequence (P08246 30-267): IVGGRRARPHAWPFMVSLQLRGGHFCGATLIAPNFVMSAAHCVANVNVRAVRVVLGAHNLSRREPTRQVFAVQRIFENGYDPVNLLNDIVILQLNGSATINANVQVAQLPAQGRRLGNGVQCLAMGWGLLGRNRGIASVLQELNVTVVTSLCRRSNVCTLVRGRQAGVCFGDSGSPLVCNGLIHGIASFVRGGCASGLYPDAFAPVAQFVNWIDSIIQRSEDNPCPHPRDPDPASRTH

[2] = system: polymorphoneucleocyte (PMN); assay: Extracellular Matrix (ECM) degradation assay; assay type: cell-based; settings: PMN's stimulated with opsonized zymosan, 4 hr at 37° C.; for inhibition at 1 µM / ECM DATA % Inhibition 1 uM: 1 uM inhibitor; for inhibition at 5 µM / ECM DATA % Inhibition 5 uM: 5 uM inhibitor
Experimental: Forty-eight well plates on which extracellular matrix had been established were supplied to Cortech by Dr. Simon's group at the State University of New York at Stony Brook. Briefly, the plates were prepared as follows: R22 rat heart smooth muscle cells were seeded into wells at 2.5×10^4 cells/cm. The cells were fed every 4 days with Eagle's Minimal Essential Media supplemented with fetal bovine serum, tryptose phosphate broth, cefotaxime and streptomycin. At confluence, daily supplements of 50 ug/ml ascorbic acid were added for 8 to 10 days during the synthesis of the ECM layer. [^35S]sulfate and [^3H]proline were also added to the culture media to incorporate radiolabel into the matrix. Cells were later lysed with 25 mM NH4OH. Plates were washed three times with water and once with phosphate-buffered saline containing 0.02% NaN3. Plates were stored at 4° C. until use.
Matrix degradation assays were performed as follows: 0.40 ml of Hanks balance salt solution (HBSS) containing 1 or 5 uM test inhibitor (final concentration; diluted from DMSO stock solution; <2% DMSO final concentration) was added to the wells. After 30 minutes, 50 ul of a polymorphoneucleocyte (PMN) suspension was added resulting in 5×10^5 cells/well. PMN's were stimulated with opsonized zymosan. Zymosan particles were washed and suspended in 0.5 ml human serum for 1 hr at 37° C., vortexing every 15 min. The particles were then washed three times with HBSS and added to wells at a ratio of 10 particles/PMN in a volume of 50 ul. After a 4 hr incubation at 37° C., a 100 ul aliquot of the supernatant was withdrawn for scintillation counting. Following removal of the remaining supernatant, the residual ECM was solubilized with 0.5 ml 2M NaOH. The amount of tritium in this solubilized ECM was accessed by scintillation. ECM degradation data are expressed as (soluble counts released/total ECM counts)—(basal counts released without PMN's/total ECM counts).

Compound	Ki [1]	inhibition at 1 µM [2]	inhibition at 5 µM [2]	ECM DATA % Inhibition 1 uM [2]	ECM DATA % Inhibition 5 uM [2]
Cc1cccc(Cc2nnc(C(=O)C(NC(=O)CN3C(=O)[C@@H](Cc4ccccc4)N(CCN4CCOCC4)C3=O)C(C)C)o2)c1 (stereo partly drawn) [CE2173, 1-(3-Morpholinoethyl)-5-(R)-benzyl-2,4-imidazolidinedione-N-[1-(2-[5-(3-methylbenzyl)-1,3,4-oxadiazolyl]carbonyl)-2-(R,S)-methylpropyl]acetamide]	6.5 nM			35.9%	47.1%
Cc1cccc(Cc2nnc(C(=O)C(NC(=O)CN3C(=O)N(Cc4ccccc4)C(=O)[C@@H]3Cc3ccccc3)C(C)C)o2)c1 (stereo partly drawn) [CE2191, 1-Benzyl-4-(S)-benzyl-2,5-imidazolidinedione-N-[1-(2-[5-(3-methylbenzyl)-1,3,4-oxadiazolyl]carbonyl)-2-(R,S)-methylpropyl]acetamide]	85 nM			29.35%	30.5%
CCCCc1nnc(C(=O)C(NC(=O)CN2C(=O)C(N)N=C(c3ccccn3)c3ccccc32)C(C)C)o1 [CE2218, (R,S)-3-Amino-2-oxo-5-(2-pyridyl)-1,4-benzodiazepine-N-[1-(2-[5-(3-methylpropyl)-1,3,4-oxadiazolyl]carbonyl)-2-(R,S)-methylpropyl]acetamide]	1.6 nM			30.5%	33.15%
CC1=NC(N)C(=O)N(CC(=O)NC(C(=O)c2nnc(Cc3cccc(C)c3)o2)C(C)C)c2ccccc21 [CE2226, (R,S)-3-Amino-2-oxo-5-methyl-1,4-benzodiazepine-N-[1-(2-[5-(3-methylbenzyl)-1,3,4-oxadiazolyl]carbonyl)-2-(R,S)-methylpropyl]acetamide]	10.3 nM	27.6%	52.2%		
Cc1cccc(Cc2nnc(C(=O)C(NC(=O)CN3C(=O)C(N)N=C(c4ccccc4Cl)c4cc(Cl)ccc43)C(C)C)o2)c1 [CE2229, (R,S)-3-Amino-2-oxo-5-(2-chlorophenyl)-1,4-(2′-chlorobenzodiazepine)-N-[1-(2-[5-(3-methylbenzyl)-1,3,4-oxadiazolyl]carbonyl)-2-(R,S)-methylpropyl]acetamide]	9.5 nM			31.25%	48.2%
Cc1ccc(C2=NCC(=O)N(CC(=O)N[C@H](C(=O)c3nnc(Cc4cccc(C)c4)o3)C(C)C)c3ccccc32)cc1 [CE2242, 2-Oxo-5-phenyl-1,4-(4′-methylbenzodiazepine)-N-[1-(2-[5-(3-methylbenzyl)-1,3,4-oxadiazolyl]carbonyl)-2-(S)-methylpropyl]acetamide]	27 nM			29.4%	40.7%
COc1ccccc1C1=NCC(=O)N(CC(=O)N[C@H](C(=O)c2nnc(Cc3cccc(C)c3)o2)C(C)C)c2ccccc21 [CE2250, 2-Oxo-5-(2-methoxyphenyl)-1,4-benzodiazepine-N-[1-(2-[5-(3-methylbenzyl)-1,3,4-oxadiazolyl]carbonyl)-2-(S)-methylpropyl]acetamide]	6.9 nM	27.4%	48.6%		
Cc1cccc(Cc2nnc(C(=O)[C@@H](NC(=O)CN3C(=O)N[C@H](Cc4ccc(O)cc4)C3=O)C(C)C)o2)c1 [CE2255, 4-(R)-(4-Hydroxybenzyl)-2,5-imidazolidinedione-N-[1-(2-[5-(3-methylbenzyl)-1,3,4-oxadiazolyl]carbonyl)-2-(S)-methylpropyl]acetamide]	18 nM			20.7%	42%
(R,S)-3-Amino-2-oxo-5-methyl-1,4-(2′,3′-methylenedioxy-benzodiazepine)-N-[1-(2-[5-(3-methylbenzyl)-1,3,4-oxadiazolyl]carbonyl)-2-(R,S)-methylpropyl]acetamide [CE2225]	8.2 nM			30.85%	43.45%

Further lines, with some results ahead:

Ki [1]	Compound	inhibition at 1 µM [2]	inhibition at 5 µM [2]	ECM DATA % Inhibition 1 uM [2]	ECM DATA % Inhibition 5 uM [2]
0.082 nM	Cc1cccc(Cc2nnc(C(=O)[C@@H](NC(=O)[C@@H]3CCCN3C(=O)[C@@H](NC(=O)c3cccnc3)C(C)C)C(C)C)o2)c1 [CE2161, (Pyridyl-3-carbonyl)-L-valyl-N-[1-(2-[5-(3-methylbenzyl)-1,3,4-oxadiazolyl]carbonyl)-2-(S)-methylpropyl]-L-prolinamide]	25%	55%		
7.3 nM	Cc1cccc(Cc2nnc(C(=O)C(NC(=O)CN3C(=O)C(c4ccccc4)N(CCN4CCOCC4)C3=O)C(C)C)o2)c1 [CE2192, 1-(N-Morpholinoethyl)-5-(R,S)-phenyl-2,4-imidazolidinedione-N-[1-(2-[5-(3-methylbenzyl)-1,3,4-oxadiazolyl]carbonyl)-2-(R,S)-methylpropyl]acetamide]	40.8%	49.7%		
8.7 nM	Cc1cccc(Cc2nnc(C(=O)[C@@H](NC(=O)CN3C(=O)NC(c4ccncc4)(N4C(=O)CCC4=O)C3=O)C(C)C)o2)c1 (stereo partly drawn) [CE2206, [4-(R,S)-(4-pyridyl)-4-(R,S)-N-succinimidyl-1-2,5-imidazolidinedione-N-[1-2-[5-(3-methylbenzyl)-1,3,4-oxadiazolyl]carbonyl)-2-(S)-methylpropyl]acetamide]			47.4%	62.3%
796 nM	Cc1cccc(Cc2nnc(C(=O)[C@@H](NC(=O)Cn3c(-c4ccccn4)nc4ccccc43)C(C)C)o2)c1 [CE2234, 2-(2-Pyridyl)-benzimidazole-N-[1-(2-[5-(3-methylbenzyl)-1,3,4-oxadiazolyl]carbonyl)-2-(S)-methylpropyl]acetamide]	39.7%	35%		
9.5 nM	COc1cc2c(cc1OC)N(CC(=O)NC(C(=O)c1nnc(Cc3cccc(C)c3)o1)C(C)C)C(=O)C(N)N=C2C [CE2235, (R,S)-3-Amino-2-oxo-5-methyl-1,4-(2′,3′-dimethoxybenzodiazepine)-N-[1-(2-[5-(3-methylbenzyl)-1,3,4-oxadiazolyl]carbonyl)-2-(R,S)-methylpropyl]acetamide]			19.75%	13.25%
30 nM	Cc1cccc(Cc2nnc(C(=O)[C@@H](NC(=O)CN3C(=O)N[C@H](c4ncc[nH]4)C3=O)C(C)C)o2)c1 [CE2257, 4-(R)-(2-Imidazolyl)-2,5-imidazolidinedione-N-[1-(2-[5-(3-methylbenzyl)-1,3,4-oxadiazolyl]carbonyl)-2-(S)-methylpropyl]acetamide]			48.3%	61.4%
7.1 nM	(R,S)-3-Amino-2-oxo-5-methyl-1,4-(1-thiophenodiazepine)-N-[1-(2-[5-(3-methylbenzyl)-1,3,4-oxadiazolyl]carbonyl)-2-(S)-methylpropyl]acetamide [CE2236]			31.9%	31.75%
0.93 nM	(R,S)-3-Amino-2-oxo-5-phenyl-1,4-(2′-chlorobenzodiazepine)-N-[1-(2-[5-(3-methylbenzyl)-1,3,4-oxadiazolyl]carbonyl)-2-(R,S)-methylpropyl]acetamide [CE2223]			34.15%	36.15%
